# Reference: patent US20160287710A1 (UNIVERSITY OF UTAH RESEARCH FOUNDATION, priority 2013, published 2016)
# Assay: Solubility of progesterone in glycol chitin solutions (reverse-phase HPLC)
# Type: physicochemical
# Conditions: aqueous with cosolvent or surfactant or cyclodextrin
# Protocol: A mixture of methanol/water (80:20; v/v) was used, as the mobile phase at a flow rate of 1 mL per minute. […] FIG. 1.
structure (smiles),measurement,setting,value
CC(=O)[C@H]1CC[C@H]2[C@@H]3CCC4=CC(=O)CC[C@]4(C)[C@H]3CC[C@]12C [Progesterone],solubility at 24 h,"5 wt % glycol chitin solution, 4 °C, thermodynamic from solid",148 ± 13.8 µg/mL
same,solubility,in a mixture of PEG-400/water (50:50 v/v),~200 µg/mL
